Measurements as given in ChEMBL document CHEMBL2203093, “EC144 is a potent inhibitor of the heat shock protein 90” (J Med Chem, 2012).
One block for each molecule: values may come before it.

Experiments:
[1] = AUC in CD-1 mouse at 5 mg/kg, iv; format: ADME, organism-based; set-up: dose 5 mg/kg, route intravenous; settings: plasma
[2] = Intrinsic clearance in human liver microsomes; format: ADME, Microsome; settings: read-out: CLH
Mus musculus [3] = experiment: Dose normalized AUC in CD-1 mouse at 5 mg/kg, iv; format: ADME, organism-based; set-up: dose 5 mg/kg, route intravenous; settings: in vivo
[4] = Intrinsic clearance in rat liver microsomes; format: ADME, Microsome; settings: read-out: CLH
[5] = Initial Cmax in CD-1 mouse at 5 mg/kg, iv; format: ADME, organism-based; set-up: dose 5 mg/kg, route intravenous; settings: in vivo
[6] = Half life in CD-1 mouse at 5 mg/kg, iv; format: ADME, organism-based; set-up: dose 5 mg/kg, route intravenous; settings: in vivo
[7] = Apparent permeability from apical to basolateral side of human Caco2 cells; format: ADME, cell-based; settings: Caco-2
[8] = Tmax in CD-1 mouse at 100 mg/kg, po; format: ADME, organism-based; set-up: dose 100 mg/kg, route oral; settings: in vivo
[9] = Initial Cmax in CD-1 mouse at 100 mg/kg, po; format: ADME, organism-based; set-up: dose 100 mg/kg, route oral; settings: in vivo
Mus musculus [10] = experiment: Dose normalized AUC in CD-1 mouse at 100 mg/kg, po; format: ADME, organism-based; set-up: dose 100 mg/kg, route oral; settings: in vivo
[11] = Intrinsic clearance in mouse liver microsomes; format: ADME, Microsome; settings: read-out: CLH
[12] = Tmax in CD-1 mouse at 25 mg/kg, po; format: ADME, organism-based; set-up: dose 25 mg/kg, route oral; settings: in vivo
[13] = AUC in CD-1 mouse at 25 mg/kg, po; format: ADME, organism-based; set-up: dose 25 mg/kg, route oral; settings: plasma
[14] = Half life in CD-1 mouse at 25 mg/kg, po; format: ADME, organism-based; set-up: dose 25 mg/kg, route oral; settings: in vivo
Mus musculus [15] = experiment: Dose normalized AUC in CD-1 mouse at 25 mg/kg, po; format: ADME, organism-based; set-up: dose 25 mg/kg, route oral; settings: in vivo
[16] = Initial Cmax in CD-1 mouse at 25 mg/kg, po; format: ADME, organism-based; set-up: dose 25 mg/kg, route oral; settings: in vivo
[17] = Toxicity in po dosed mouse administered as a single dose; format: organism-based; settings: in vivo
NCI-N87 = experiment: Drug uptake in human NCI-N87 cells xenografted in mouse at 6 to 12 mg/kg, po administered as a single dose at 6 to 24 hrs; format: ADME, organism-based; set-up: route oral; settings: in vivo
[18] = Tmax in DBA1 mouse lymph nodes at 5 mg/kg, po; format: ADME, organism-based, Lymph node; set-up: dose 5 mg/kg, route oral
[19] = Half life in DBA1 mouse spleen at 5 mg/kg, po; format: ADME, organism-based; set-up: dose 5 mg/kg, route oral
[20] = Half life in DBA1 mouse lymph nodes at 5 mg/kg, po; format: ADME, organism-based, Lymph node; set-up: dose 5 mg/kg, route oral
[21] = Tmax in DBA1 mouse plasma at 5 mg/kg, po; format: ADME, organism-based; set-up: dose 5 mg/kg, route oral
[22] = Cmax in DBA1 mouse brain at 5 mg/kg, po; format: ADME, organism-based; set-up: dose 5 mg/kg, route oral
[23] = Cmax in DBA1 mouse lymph nodes at 5 mg/kg, po; format: ADME, organism-based, Lymph node; set-up: dose 5 mg/kg, route oral
Brain = experiment: Drug uptake in human NCI-N87 cell xenografted mouse brain at 6 to 12 mg/kg, po administered as a single dose at 6 to 24 hrs; format: ADME, organism-based; set-up: route oral; settings: in vivo
[24] = AUC (infinity) in DBA1 mouse spleen at 5 mg/kg, po; format: ADME, organism-based; set-up: dose 5 mg/kg, route oral, time infinity
[25] = AUC (infinity) in DBA1 mouse lymph nodes at 5 mg/kg, po; format: ADME, organism-based, Lymph node; set-up: time infinity, dose 5 mg/kg, route oral
[26] = Half life in DBA1 mouse brain at 5 mg/kg, po; format: ADME, organism-based; set-up: dose 5 mg/kg, route oral
[27] = Tmax in DBA1 mouse brain at 5 mg/kg, po; format: ADME, organism-based; set-up: dose 5 mg/kg, route oral
Spleen = experiment: Drug uptake in human NCI-N87 cell xenografted mouse spleen at 6 to 12 mg/kg, po administered as a single dose at 6 to 24 hrs; format: ADME, organism-based; set-up: route oral; settings: in vivo
[28] = Cmax in DBA1 mouse plasma at 5 mg/kg, po; format: ADME, organism-based; set-up: dose 5 mg/kg, route oral
[29] = Half life in DBA1 mouse plasma at 5 mg/kg, po; format: ADME, organism-based; set-up: dose 5 mg/kg, route oral
Serum = experiment: Drug uptake in human NCI-N87 cell xenografted mouse serum at 6 to 12 mg/kg, po administered as a single dose at 6 to 24 hrs; format: ADME, organism-based; set-up: route oral; settings: in vivo
[30] = AUC (infinity) in DBA1 mouse brain at 5 mg/kg, po; format: ADME, organism-based; set-up: dose 5 mg/kg, route oral, time infinity
[31] = Cmax in DBA1 mouse spleen at 5 mg/kg, po; format: ADME, organism-based; set-up: dose 5 mg/kg, route oral
[32] = Toxicity in po dosed human N87 cell xenografted athymic mouse administered as qd for 5 days per week for 4 weeks; format: organism-based, NCI-N87; settings: in vivo
[33] = AUC (infinity) in DBA1 mouse plasma at 5 mg/kg, po; format: ADME, organism-based; set-up: dose 5 mg/kg, route oral, time infinity

AUC [1]: 2.41 µg·h/mL | CLint scaled [2]: 2.34 L/h/kg | AUC/dose (Mus musculus [3]): 481 ng·h/mL/mg/kg | CLint scaled [4]: 13.1 L/h/kg | Cmax [5]: 2.18 µg/mL | half-life [6]: 6.6 h | Papp A→B [7]: 19 nm/s
Compound: CCNC(=O)c1noc(-c2cc(C(C)C)c(O)cc2O)c1-c1ccc(CN2CCOCC2)cc1 [LUMINESPIB]

Compound: COc1c(C)cnc(Cn2cnc3c(Cl)nc(N)nc32)c1C [BIIB021]
Tmax [8]: 4.98 min | Cmax [9]: 10 µg/mL | AUC/dose (Mus musculus [10]): 48 ng·h/mL/mg/kg | Papp A→B [7]: 200 nm/s

CLint scaled [11]: 18.1 L/h/kg | CLint scaled [2]: 3.24 L/h/kg | CLint scaled [4]: 3.24 L/h/kg | Tmax [12]: 1 h | AUC [13]: 8.52 µg·h/mL | half-life [14]: 2.9 h | AUC/dose (Mus musculus [15]): 341 ng·h/mL/mg/kg | Cmax [16]: 1.72 µg/mL | Papp A→B [7]: 11 nm/s
Compound: CC1(C)CC(=O)c2c(C(F)(F)F)nn(-c3ccc(C(N)=O)c(N[C@H]4CC[C@H](O)CC4)c3)c2C1 [SNX-2112]

Compound: COc1c(C)cnc(Cn2cc(C#CCC(C)(C)O)c3c(Cl)nc(N)nc32)c1C
MTD [17]: 30 mg/kg | Drug uptake (NCI-N87): Active | Tmax [18]: 1 h | half-life [19]: 2 h | half-life [20]: 1.6 h | Tmax [21]: 4.98 min | CLint scaled [11]: 43.6 L/h/kg | CLint scaled [2]: 7.14 L/h/kg | Cmax [22]: 1.45 µg/mL | Cmax [23]: 2.14 µg/mL | Drug uptake (Brain): Active | CLint scaled [4]: 16.6 L/h/kg | AUC(0-inf) [24]: 8.16 µg·h/mL | AUC(0-inf) [25]: 5.19 µg·h/mL | half-life [26]: 2.1 h | Tmax [12]: 0.5 h | Tmax [27]: 0.5 h | AUC [13]: 4.42 µg·h/mL | half-life [14]: 1.5 h | Drug uptake (Spleen): Active | Cmax [28]: 0.835 µg/mL | half-life [29]: 1.2 h | AUC/dose (Mus musculus [15]): 177 ng·h/mL/mg/kg | Drug uptake (Serum): Active | AUC(0-inf) [30]: 4.71 µg·h/mL | Cmax [31]: 1.89 µg/mL | Cmax [16]: 1.56 µg/mL | MTD at 4 weeks [32]: 10 mg/kg | AUC(0-inf) [33]: 2.12 µg·h/mL | Papp A→B [7]: 347 nm/s

Compound: C=CCNC1=C2C[C@@H](C)C[C@H](OC)[C@H](O)[C@@H](C)/C=C(\C)[C@H](OC(N)=O)[C@@H](OC)/C=C\C=C(/C)C(=O)NC(=CC1=O)C2=O [TANESPIMYCIN]
MTD [17]: 60 mg/kg
